# Source: US6642003B2, “Human glucose-dependent insulin-secreting cell line” (Cedars-Sinai Medical Center, priority 2001, dated 2003)
# Key:
# [1] = test system: ARIP cells; assay: Immunofluorescence for IDX-1, ARIP cells; format: cell-based, rat
# Procedure: (§1) Cells were cultured on monocoated chamber slides (Nalge Nunc International; Naperville, Ill.) in the presence of GLP-1 (10 nM), or vehicle, for 72 h.
# (§2) For the detection of IDX-1, slightly different conditions were used. Briefly: the concentration of paraformaldehyde was decreased to 2%, and the concentration of Triton to permeabilize the cells was raised to 0.2% Triton-X-100. Cells were then washed with 0.01 M PBS three times for 3-5 min, and non-specific binding was inhibited by using 5% chick serum in 0.01 M PBS, at room temperature for 60 min in a humid chamber. A rabbit IDX-1 antibody directed against the N-terminus of the frog homologue of the IDX-1 gene was used as the primary antibody (1:500 diluted with 0.1% Triton-X 100, 1% BSA in 0.01 M PBS), and slides were incubated at 4° C. overnight in a humid chamber. After washing, cells were incubated with a fluorescein-conjugated goat anti-rabbit IgG antibody (Molecular Probes, Inc. Eugene, Oreg.) and incubated at room temperature for 1 hour in a humid chamber. Nuclei of cells stained with anti-IDX-1 antibody were visualized with Hoechst […] dye (Sigma, St. Louis, Mo.). The percentage of IDX-1 containing cells was evaluated by counting the number of IDX-1 “positive” cells divided by the total number of cells identified by nuclear staining.
# [2] = test system: PANC-1 cells; assay: Immunofluorescence for IDX-1, parental PANC-1 cells; format: cell-based, human; conditions: vehicle alone or GLP-1
# Procedure: as §1, §2
# [3] = test system: ARIP cells; assay: Immunocytochemistry for insulin, ARIP cells; format: cell-based, rat; conditions: GLP-1 10 nM, 72 h
# Procedure: as §1
# For the detection of insulin, cells were washed and fixed with 3% paraformaldehyde for 4 h, at room temperature in PBS, solubilized with 0.1% (vol/vol) Triton X-100 in PBS for 5 min. Cells were then incubated sequentially with an anti-insulin antibody and a secondary antibody, as described by the manufacturer (Biomeda Corp.; Foster City, Calif.). The cells were examined using a Ziess Axiophoto microscope (New York, N.Y.).
# [4] = test system: PANC-1 cells; assay: RT-PCR of islet β-cell specific transcripts, parental PANC-1 cells; format: cell-based, human; conditions: GLP-1 10 nM for 96 h
# Procedure: (§3) After the treatment of ARIP and PANC-1 cells with GLP-1, Exendin-9, or vehicle, for the described length of time and the various doses, the culture medium was removed and the cells were washed (twice) with serum-free medium. Total RNA was isolated using the TRiazol-method (Gibco-BRL), and treated with DNase (Amplification Grade, GibcoBRL) in 20 mmol/l Tris-HCL (pH 8.4), 2 mmol/l MgCl2, and 50 mmol/l KCl to remove any traces of contaminating genomic DNA. RNA (2.5 μg) was then subjected to reverse transcription (RT reagents; Promega; Madison, Wis.). RT-PCR was undertaken in a volume of 50 μl of buffer containing 50 mmol/l KCl, 10 mmol/l Tris-HCl, 3.5 mmol/l MgCl2, 200 μmol/l each dNTPs, and 0.4 μmol/l each of sense and antisense primers to rat or human insulin (depending on the specific cell from which the RNA was extracted). Amplification was performed for 30 cycles at the denaturing temperature of 94° C. for 1 min, annealing temperature of 60° C. for 45 sec, and an extension temperature of 72° C. for 1 min. […] These included more irregular and variable cell shapes, with a cytoplasm less homogenous and “rougher” in appearance than control culture.
# Treatment with GLP-1 induces the differentiation of ductal epithelial cells into insulin-producing cells. FIG. 2 illustrates a series of cell cultures grown with or without GLP-1 (10 nM) for 72 h. […]
# [5] = test system: ARIP cells; assay: Morphological changes (hematoxylin and eosin), ARIP cells; format: cell-based, rat; conditions: GLP-1 10 nM for 72 h
# Source text: (§4) Hematoxylin and eosin staining was employed, in some experiments, to show the morphological changes observed under the experimental conditions described below.
# [6] = test system: PANC-1/IDX-1 cells; assay: RT-PCR of islet β-cell specific transcripts, PANC-1/IDX-1 cells; format: cell-based, human
# Procedure: PANC-1 cells were transfected with a pcDNA3 construct (Invitrogen; Carlsbad, Calif.) harboring the wild-type full-length IDX-1 cDNA using LipoTAXI (Catalog N. 204110; Mammalian Transfection Kit, Stratagene; La Jolla, Calif.). Control cells were transfected with the vector alone. The selection of positive (i.e. transfected) cells was carried out by culturing the cells in the presence of 400 μg/ml of G418 sulfate (GN-04, Omega; Tarzana, Calif.).
# as §3
# Treatment with GLP-1 induces the differentiation of ductal epithelial cells into insulin-producing cells. FIG. 2 illustrates a series of cell cultures grown with or without GLP-1 (10 nM) for 72 h. […] Preabsorption of the antibody with an excess of human recombinant insulin prevented the staining of insulin-positive GLP-1 treated cells (data not shown). While treatment with GLP-1 turned the majority of ARIP cells into […] For β-actin, the annealing temperature was raised to 64° C. for 1 min and gene-specific primers were used. For GLP-1-receptor (GLP-R) the annealing temperature used was 55° C. All other experimental conditions to amplify GLUT2, glucokinase, and GLP-R mRNAs were identical to those described for the amplification of insulin mRNA. RT and PCR conditions for human transcripts were identical to those described for rat mRNAs.
# Southern blotting with species-specific full length cDNA probes for insulin, GLUT-2, glucokinase, GLP-1 receptor and β-actin was performed as previously described. Y. Wang, R. Perfetti, N. H. Greig, H. W. Holloway, K. A. DeOre, C. Montrose-Rafizadeh, D. Elahi, J. M. Egan, “Glucagon-like peptide-1 can reverse the age-related decline in glucose tolerance in rats.” J Clin Invest 99:2883-2889, 1997.
# [7] = test system: PANC-1 cells; assay: Morphological changes (hematoxylin and eosin), parental PANC-1 cells; format: cell-based, human; conditions: GLP-1 10 nM for 72 h
# Source text: as §4
substance,measurement,setting,value
glucagon-like peptide-1 [GLP-1],effect on expression level of IDX-1,[1]; GLP-1 10 nM for 72 h,further increase
same,cells expressing IDX-1,"[1]; GLP-1 or vehicle, 400 cells counted",approximately 70%
same,IDX-1 staining,[2],No positive IDX-1 staining
same,insulin immunostaining,[3],positive immunoreactivity for insulin
same,RT-PCR for insulin,[4],consistently negative
same,morphological change,[5],promoted the aggregation of cells in small clusters
same,time of GLUT2 mRNA expression,[6]; GLP-1 10 nM,24 h
same,time of earliest detection of insulin mRNA,[6]; GLP-1 10 nM,48 h
same,time of glucokinase mRNA expression,[6]; GLP-1 10 nM,72 h
same,GLP-1 dose at peak of insulin mRNA levels,[6]; data not shown,10 nM
same,GLP-1 dose at plateau of insulin mRNA levels,[6]; data not shown,20 nM
same,lowest dose of GLP-1 required to detect insulin mRNA,[6]; data not shown,1 nM
same,morphological change,[7],did not respond
